Measurements from publication PMC10854894, “A New Benzo[6,7]oxepino[3,2-b] Pyridine Derivative Induces Apoptosis in Canine Mammary Cancer Cell Lines” (Animals : an Open Access Journal from MDPI, 2024).

Key:
CMGT071020 cells = assay: Morphological analysis, phase-contrast microscopy; assay type: cell-based, canine; conditions: CMGT071020, 50, 100 or 200 µM, 48 h
Method: (§1) To investigate the morphological changes of the two CMC cell lines during the treatment with MPOBA, they were cultured in a 6-well plate at a density of 2 × 10^5 cells/well and allowed to incubate for 24 h until they reached 70–80% confluence. They were subsequently treated with MPOBA at varying concentrations from 0 to 200 µM for 48 h. Images of the cells were captured using a phase-contrast inverted microscope (Nikon, Tokyo, Japan) at 40× magnification.

REM134 cells = assay: Morphological analysis, phase-contrast microscopy; assay type: cell-based, canine; conditions: REM134, 50, 100 or 200 µM, 48 h
Method: as §1

## Cc1ncccc1Oc1ccccc1C=O [MPOBA, 2-((2-methylpyridin-3-yl)oxy)benzaldehyde]
CMGT071020 cells
  cell morphology: reduced in cell size, cell shrinkage, rounding, vacuolation, and a loss of cell-to-cell adhesion
REM134 cells
  cell morphology: reduced in cell size, cell shrinkage, rounding, vacuolation, and a loss of cell-to-cell adhesion
